Read-outs that look alike come from different tables or passages of the source.
Assays:
PDE4 enzyme = assay: Inhibition of Phosphodiesterase Enzymes (PDE4), [3H]cAMP hydrolysis; assay type: biochemical
Procedure: Inhibition of Phosphodiesterase Enzymes (PDE4)
In this assay, PDE4 enzyme converts [^3H] cAMP to the corresponding [^3H] 5′-AMP in proportion to the amount of PDE4 present The [^3H] 5′-AMP then was quantitatively converted to free [^3H] adenosine and phosphate by the action of snake venom 5′-nucleotidase.
The assay was performed with modification of the method of Thompson and Appleman (Biochemistry; 1971; 10; 311-316) and Schwartz and Passoneau (Proc. Natl. Acad. Sci. U.S.A. 1974; 71; 3844-3848), both references incorporated herein by reference in their entirety, at 34° C. In a 200 ul total reaction mixture, the reaction mixture contained 12.5 mM of Tris, 5 mM MgCl2, 1 μM cAMP (cold) and ^3H cAMP (0.1 uCi), (Amersham). […] Drug samples were then added in the reaction mixture (25 μl/tube). The assay was initiated by addition of enzyme mix (75 μl) and the mixture was incubated for 20 minutes at 34° C. The reaction was stopped by boiling the tubes for 2 mins at 100° C. in a water bath. After cooling on ice for 5 minutes and addition of 50 ug/reaction of 5′-nucleotidase snake venom from Crotalus atrox incubation was carried out again for 20 min. at 34° C. The unreacted substrate was separated from (^3H) Adenosine by addition of Dowex AG 1-X8 (Biorad Lab), (400 ul) which was prequilibrated (1:1:1) in water and ethanol. Reaction mixture was then thoroughly mixed, placed on ice for 15 minutes, vortexed and centrifuged at 14,000 r.p.m. for 2 mins. After centrifugation, a sample of the supernatant was taken and added in 24 well optiplates containing Scintillant (1 ml) and mixed well. The samples in the plates were then determined for radioactivity in a Top Counter and the PDE4 activity was estimated. PDE4 enzyme was present in quantities that yield <30% total hydrolysis of substrate (linear assay conditions).
(§1) Results were expressed as percent inhibition (IC50) in nM concentrations. The IC50 values were determined from the concentration curves by nonlinear regression analysis.
The IC50 value for the compound examined was determined from concentration-response curves in which varying range of concentrations were considered as shown in table 1

PDE4 = assay: Cell Based Assay for PDE4 Inhibition: cAMP elevation in whole U937 cells; conditions: 1 μM PGE1, normalized over PGE1
Procedure: Cell Based Assay for PDE4 Inhibition:
cAMP elevation studies were conducted in whole U937 cells. U937 cells (ATCC) were grown in RPMI medium containing 10% FBS, 1% pen-strep solution, 1% L-glutamine for 48 hrs. On the day of assay, the cells were washed twice with plain RPM1 medium by centrifuging at 800 rpm for 5 mins. Cells were resuspended in plain RPM1 medium followed by cell number and viability assessment using a trypan blue stain. Cells (0.15-0.2 mio cells per well) were seeded in a 96 well microtitre plate and incubated with various drugs/DMSO vehicle at 37° C. for 15 min. cAMP generation was started by addition of 1 μM PGE1 for 15 mins. The incubation was terminated by addition of cell lysis buffer from cAMP estimation kit. Lysate was used for cAMP quantitatin by chemiluminescence method (DiscoveRX kits). cAMP values were normalized over PGE1. EC50 values were calculated from dose response curves by nonlinear regression analysis using PRISM software.

PDE 2 (cGP-stimulated) = PDE 2 (cGP-stimulated) (Homo sapiens, UniProt O00408); assay: Activity against other Phosphodiesterase enzymes: PDE 2; assay type: biochemical; conditions: read-out: IC50 values PDE2
Procedure: (§2) Additionally, activity of the compounds were tested against other Phosphodiesterase enzymes, namely, PDE 1 (Ca^2+/calmodulin-dependent), PDE 2 (cGP-stimulated), PDE 3 (cGP-inhibited), PDE 5 (cGP-specific) and PDE 6 (cGP-specific, photoreceptor).
as §1

[1] = target: PDE 1 (Ca2+/calmodulin-dependent); assay: Activity against other Phosphodiesterase enzymes: PDE 1; assay type: biochemical
Procedure: as §2, §1

PDE 3 (cGP-inhibited) = assay: Activity against other Phosphodiesterase enzymes: PDE 3; assay type: biochemical; conditions: read-out: IC50 values PDE3
Procedure: as §2, §1

[2] = target: PDE 6 (cGP-specific, photoreceptor); assay: Activity against other Phosphodiesterase enzymes: PDE 6; assay type: biochemical
Procedure: as §2, §1

[3] = PDE4 enzyme, 1 μM cAMP and 3H cAMP, 34° C., read-out: IC50

Sequence of PDE 2 (cGP-stimulated) (O00408 whole entry): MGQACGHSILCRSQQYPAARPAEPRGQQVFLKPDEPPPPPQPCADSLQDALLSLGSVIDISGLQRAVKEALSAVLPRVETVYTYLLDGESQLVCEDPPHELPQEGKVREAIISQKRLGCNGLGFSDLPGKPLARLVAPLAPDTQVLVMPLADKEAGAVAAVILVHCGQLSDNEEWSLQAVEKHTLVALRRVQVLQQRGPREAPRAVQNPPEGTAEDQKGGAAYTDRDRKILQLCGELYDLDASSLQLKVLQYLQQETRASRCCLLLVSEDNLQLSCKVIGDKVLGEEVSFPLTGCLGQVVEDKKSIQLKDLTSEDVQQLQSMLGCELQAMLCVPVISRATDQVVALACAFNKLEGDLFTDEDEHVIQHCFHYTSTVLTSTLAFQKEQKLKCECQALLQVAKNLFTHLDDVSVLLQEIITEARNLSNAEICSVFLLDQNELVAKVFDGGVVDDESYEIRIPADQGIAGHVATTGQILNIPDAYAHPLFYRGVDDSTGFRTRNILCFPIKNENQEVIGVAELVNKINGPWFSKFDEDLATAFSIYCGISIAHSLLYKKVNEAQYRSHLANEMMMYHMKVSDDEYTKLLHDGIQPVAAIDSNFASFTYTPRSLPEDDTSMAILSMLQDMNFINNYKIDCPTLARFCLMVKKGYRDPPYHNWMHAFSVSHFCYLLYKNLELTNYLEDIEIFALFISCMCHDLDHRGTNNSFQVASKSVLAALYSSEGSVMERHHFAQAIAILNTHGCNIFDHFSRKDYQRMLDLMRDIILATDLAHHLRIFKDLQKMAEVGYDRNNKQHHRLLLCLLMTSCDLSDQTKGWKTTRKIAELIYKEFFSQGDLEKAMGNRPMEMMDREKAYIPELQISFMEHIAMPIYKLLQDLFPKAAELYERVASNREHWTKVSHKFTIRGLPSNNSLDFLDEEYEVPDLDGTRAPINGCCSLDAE

SMILES | IC50 (PDE4 enzyme; [3]) [nM] | IC50 (PDE4 enzyme; Table 1, read-out: IC50 values PDE4) [nM] | EC50 (PDE4) [nM] | IC50 (PDE 2 (cGP-stimulated)) [nM] | % inhibition at 100 µM [1] [%] | melting point | IC50 (PDE 3 (cGP-inhibited)) [nM] | % inhibition at 100 µM [2] [%]
COc1ccc(C(=O)Nc2c(Cl)cncc2Cl)c2c1oc1ccccc12 [Example 1, N-(3,5-dichloropyrid-4-yl)-4-methoxy dibenzo[b,d]furan-1-carboxamide] | 0.8 | 0.8 | 83.7 | 69100 | 44 | 302 °C | 61800 | 36
O=C(Nc1c(Cl)cncc1Cl)c1ccc(OC(F)F)c2oc3ccccc3c12 [Example 19, N-(3,5-dichloropyrid-4-yl)-4-difluoromethoxy dibenzo[b,d]furan-1-carboxamide] | 2.54 |  | 20.4 |  |  | 270 °C |  | 
COc1ccc(C(=O)Nc2c(Cl)cncc2Cl)c2c1oc1ccc(Cl)cc12 [Example 41, N-(3,5-dichloropyrid-4-yl)-4-methoxy-8-chloro-dibenzo[b,d]furan-1-carboxamide] | 0.839 |  | 200 |  |  | 300 °C |  | 
COc1ccc(C(=O)Nc2c(Cl)cncc2Cl)c2c1oc1ccc(Br)cc12 [Example 42, N-(3,5-dichloropyrid-4-yl)-4-methoxy-8-bromo-dibenzo[b,d]furan-1-carboxamide] | 4.92 |  | 44.2 |  |  | 308 °C |  | 
COc1ccc(C(=O)Nc2c(Cl)cncc2Cl)c2c1oc1ccc(I)cc12 [Example 45, N-(3,5-dichloropyrid-4-yl)-4-methoxy-8-iodo-dibenzo[b,d]furan-1-carboxamide] | 4.54 |  | > 300 |  |  | 304 °C (dec.) |  | 
COc1ccc(C(=O)Nc2c(Cl)cncc2Cl)c2c1oc1ccc(N)cc12 [Example 55, N-(3,5-dichloropyrid-4-yl)-4-methoxy-8-amino-dibenzo[b,d]furan-1-carboxamide] | 1.2 |  | 47.5 |  |  | 249 °C (dec.) |  | 
O=C(Nc1c(Cl)cncc1Cl)c1ccc(OC(F)F)c2oc3ccc([N+](=O)[O-])cc3c12 [Example 58, N-(3,5-dichloropyrid-4-yl)-4-difluoromethoxy-8-nitro-dibenzo[b,d]furan-1-carboxamide] | 10 |  | 148 |  |  | > 270 °C |  | 
Nc1ccc2oc3c(OC(F)F)ccc(C(=O)Nc4c(Cl)cncc4Cl)c3c2c1 [Example 59, N-(3,5-dichloropyrid-4-yl)-4-difluoromethoxy-8-amino-dibenzo[b,d]furan-1-carboxamide] | 4.47 |  | 49.2 |  |  | > 270 °C |  | 
